Experimental data taken from patent US20140249135A1, “PIM KINASE INHIBITORS AND METHODS OF THEIR USE” (NOVARTIS AG, priority 2007, published 2014).
Read-outs that look alike come from different tables or passages of the source.

Legend:
Pim2 kinase = Pim2 kinase (Homo sapiens, UniProt Q9P1W9); assay: Pim2 ATP depletion assay; type: biochemical;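 also: Luciferase-based luminescent readout of ATP remaining after PIM2 phosphorylates a BAD peptide, final 5 nM enzyme, 4 µM ATP, 10 µM peptide, 2.5% DMSO, run to roughly half ATP consumption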
Pim3 kinase = Pim3 kinase (Homo sapiens, UniProt Q86V86); assay: Pim3 ATP depletion assay; type: biochemical
Pim1 kinase = Pim1 kinase (Homo sapiens, UniProt P11309); assay: Pim1 ATP depletion assay; type: biochemical; conditions: Pim1 ATP depletion assay;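 also: Luciferase-luciferin luminescence readout of residual ATP after PIM1 transfers phosphate to a peptide substrate, 40 µM ATP added, reaction run to roughly half ATP consumption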
HEL 92.1.7 cells = assay: Cell proliferation assay (CellTiter-Glo), HEL 92.1.7; type: cell-based; conditions: Homo sapiens, read-out: EC50 (μM) HEL 92.1.7
Procedure: HEL 92.1.7 cells (ATTC No. TIB-180, an erythroleukemia line derived from malignant peripheral blood), MV4-11 cells (ATCC No. CRL-9591, a human acute monocytic leukemia line) and PC3 cells (ATCC No. CRL-1435, a human prostatic adenocarcinoma line) were cultured in RPMI1640 supplemented with 10% FBS, sodium pyruvate and antibiotics. Cells were plated in the same medium at a density of 1000 cells per well into 96 well tissue culture plates, with outside wells vacant, on the day of assay.
Test compounds supplied in DMSO were diluted into DMSO at 500 times the desired final concentrations before dilution into culture media to 2 times final concentrations. Equal volumes of 2× compounds were added to the cells in 96 well plates and incubated at 37° C. for 3 days.
After 3 days plates were equilibrated to room temperature and equal volume of CellTiter-Glow Reagent (Promega) was added to the culture wells. The plates were agitated briefly and luminescent signal was measured with luminometer. The percent inhibition of the signal seen in cells treated with DMSO alone vs. cells treated with control compound was calculated and used to determine EC50 values (i.e., the concentration of a test compound that is required to obtain 50% of the maximum effect in the cells) for tested compounds, as shown in Example 763.

[1] = molecular target: T1, human full length PKCE enzyme (Homo sapiens, UniProt Q02156); assay: In vitro PKCE assay; type: biochemical; conditions: 10 nM enzyme, 40 uM peptide substrate, 20 uM ATP, KinaseGlo Plus readout; read-out: PKCε IC50
T1 construct: human full length PKCE enzyme purchased from InVitrogen; purchased InVitrogen
T1 sequence (Q02156 1-737): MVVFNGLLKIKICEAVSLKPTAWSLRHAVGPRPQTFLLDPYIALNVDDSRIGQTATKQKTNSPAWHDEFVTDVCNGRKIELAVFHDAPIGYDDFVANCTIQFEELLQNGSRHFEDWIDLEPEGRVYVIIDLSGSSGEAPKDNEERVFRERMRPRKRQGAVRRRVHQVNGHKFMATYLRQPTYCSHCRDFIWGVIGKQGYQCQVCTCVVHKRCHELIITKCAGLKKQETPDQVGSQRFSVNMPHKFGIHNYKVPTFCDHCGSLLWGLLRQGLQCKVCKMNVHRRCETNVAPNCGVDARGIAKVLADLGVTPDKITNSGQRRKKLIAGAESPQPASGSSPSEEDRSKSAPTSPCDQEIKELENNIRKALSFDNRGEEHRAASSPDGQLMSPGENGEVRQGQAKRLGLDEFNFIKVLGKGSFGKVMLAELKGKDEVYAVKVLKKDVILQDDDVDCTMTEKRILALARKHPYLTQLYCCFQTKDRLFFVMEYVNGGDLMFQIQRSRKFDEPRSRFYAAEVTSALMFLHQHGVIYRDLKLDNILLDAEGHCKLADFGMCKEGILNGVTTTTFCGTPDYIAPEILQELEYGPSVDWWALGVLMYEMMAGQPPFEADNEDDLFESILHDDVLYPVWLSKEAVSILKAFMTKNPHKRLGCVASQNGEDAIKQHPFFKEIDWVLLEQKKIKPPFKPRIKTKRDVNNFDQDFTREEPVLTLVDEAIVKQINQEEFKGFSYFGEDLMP

KDR kinase = KDR kinase (Homo sapiens, UniProt P35968); assay: KDR AlphaScreen assay; conditions: KDR IC50 (μM)
KDR kinase, sequence (P35968 20-1356): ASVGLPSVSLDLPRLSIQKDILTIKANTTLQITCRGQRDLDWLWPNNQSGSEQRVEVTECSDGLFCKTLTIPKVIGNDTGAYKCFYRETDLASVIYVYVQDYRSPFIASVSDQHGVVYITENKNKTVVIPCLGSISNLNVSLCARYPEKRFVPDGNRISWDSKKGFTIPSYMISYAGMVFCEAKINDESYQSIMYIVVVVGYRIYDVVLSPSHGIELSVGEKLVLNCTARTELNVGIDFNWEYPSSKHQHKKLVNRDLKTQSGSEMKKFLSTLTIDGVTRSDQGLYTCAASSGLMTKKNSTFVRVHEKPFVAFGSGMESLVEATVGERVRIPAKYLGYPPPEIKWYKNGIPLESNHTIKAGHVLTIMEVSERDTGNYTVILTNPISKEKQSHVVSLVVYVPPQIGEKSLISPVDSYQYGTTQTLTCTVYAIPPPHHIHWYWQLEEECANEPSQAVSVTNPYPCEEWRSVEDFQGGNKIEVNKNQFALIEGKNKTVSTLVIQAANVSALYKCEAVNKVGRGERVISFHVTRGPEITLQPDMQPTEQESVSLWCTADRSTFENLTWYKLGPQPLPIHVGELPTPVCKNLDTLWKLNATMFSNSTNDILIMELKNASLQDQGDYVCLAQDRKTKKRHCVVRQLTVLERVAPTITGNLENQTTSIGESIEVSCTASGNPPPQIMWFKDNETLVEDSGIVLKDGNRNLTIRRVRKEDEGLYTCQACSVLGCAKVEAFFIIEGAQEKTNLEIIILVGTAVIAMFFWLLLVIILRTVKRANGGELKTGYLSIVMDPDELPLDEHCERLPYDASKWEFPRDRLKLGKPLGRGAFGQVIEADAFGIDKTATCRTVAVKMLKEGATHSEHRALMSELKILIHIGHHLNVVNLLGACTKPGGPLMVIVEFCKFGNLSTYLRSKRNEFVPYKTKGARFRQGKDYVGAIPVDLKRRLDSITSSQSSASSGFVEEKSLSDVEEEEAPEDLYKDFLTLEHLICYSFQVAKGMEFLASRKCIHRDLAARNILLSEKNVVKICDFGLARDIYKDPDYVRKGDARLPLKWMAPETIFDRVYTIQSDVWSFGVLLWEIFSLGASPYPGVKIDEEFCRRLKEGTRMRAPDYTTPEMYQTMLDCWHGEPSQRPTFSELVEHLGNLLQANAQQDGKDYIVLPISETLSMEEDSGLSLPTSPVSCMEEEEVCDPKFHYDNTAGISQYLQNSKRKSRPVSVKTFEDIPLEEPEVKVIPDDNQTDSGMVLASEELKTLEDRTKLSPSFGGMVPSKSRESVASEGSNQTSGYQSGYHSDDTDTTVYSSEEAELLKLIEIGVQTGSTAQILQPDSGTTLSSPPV

Pim1 kinase, sequence (P11309 whole entry): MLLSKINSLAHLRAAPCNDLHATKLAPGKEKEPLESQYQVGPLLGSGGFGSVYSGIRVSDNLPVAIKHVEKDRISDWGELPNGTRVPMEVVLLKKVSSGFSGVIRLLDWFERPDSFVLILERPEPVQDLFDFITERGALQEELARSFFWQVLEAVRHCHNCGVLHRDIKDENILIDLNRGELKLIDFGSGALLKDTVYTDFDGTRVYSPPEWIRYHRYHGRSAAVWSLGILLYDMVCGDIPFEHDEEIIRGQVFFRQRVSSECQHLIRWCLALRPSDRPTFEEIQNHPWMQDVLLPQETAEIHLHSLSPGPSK
Pim2 kinase, sequence (Q9P1W9 whole entry): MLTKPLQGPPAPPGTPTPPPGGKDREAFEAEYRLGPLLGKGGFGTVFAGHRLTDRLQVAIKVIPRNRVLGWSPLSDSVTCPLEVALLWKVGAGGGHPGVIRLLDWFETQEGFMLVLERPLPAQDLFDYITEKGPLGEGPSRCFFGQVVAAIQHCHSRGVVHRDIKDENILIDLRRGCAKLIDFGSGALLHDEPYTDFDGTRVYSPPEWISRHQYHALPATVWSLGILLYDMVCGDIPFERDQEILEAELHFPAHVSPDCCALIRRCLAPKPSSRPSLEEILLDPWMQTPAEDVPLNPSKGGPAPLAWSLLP

SMILES | IC50 (Pim2 kinase; read-out: IC50 (μM) PIM2) | IC50 (Pim3 kinase; read-out: IC50 (μM) PIM3) | IC50 (Pim1 kinase; read-out: IC50 (μM) PIM1) | EC50 (HEL 92.1.7 cells) | IC50 [1] | IC50 (KDR kinase) | IC50 (Pim2 kinase; read-out: PIM2 IC50) | IC50 (Pim3 kinase; read-out: PIM3 IC50) | IC50 (Pim1 kinase; read-out: PIM1 IC50)
Nc1ccc(-c2cccnc2Cl)nc1C(=O)Nc1cnccc1N1CCC[C@H](N)C1 [Example 331, 5-amino-2′-chloro-[2,3′]bi-pyridinyl-6-carboxylic acid ((S)-3-amino-3,4,5,6-tetra-hydro-2H-[1,4′]bipyridinyl-3′-yl)-amide] | < 1 µM | < 1 µM | < 1 µM | 1 to 5 µM |  |  |  |  | 
CNC(=O)c1ccc(F)c(-c2ccc(N)c(C(=O)Nc3cnccc3N3CCC[C@H](N)C3)n2)c1 [Example 334, 3-amino-6-(2-fluoro-5-methylcarbamoyl-phenyl)-pyridine-2-carboxylic acid ((S)-3-amino-3,4,5,6-tetra-hydro-2H-[1,4′]bipyridinyl-3′-yl)-amide] | < 1 µM | < 1 µM | < 1 µM | 5 to 10 µM |  |  |  |  | 
Cc1ccc(-c2ccc(N)c(C(=O)Nc3cnccc3N3CCC[C@H](N)C3)n2)c(F)c1 [Example 432, 3-amino-6-(2-fluoro-4-methyl-phenyl)-pyridine-2-carboxylic acid ((S)-3-amino-3,4,5,6-tetra-hydro-2H-[1,4′]bipyridinyl-3′-yl)-amide] |  |  |  | 1 to 5 µM |  |  |  |  | 
Nc1cc(C(F)(F)F)c(-c2ccc(N)c(C(=O)Nc3cnccc3N3CCC[C@H](N)C3)n2)cn1 [Example 483, 5,6′-Diamino-4′-trifluoromethyl-[2,3′]bipyridinyl-6-carboxylic acid (3-amino-3,4,5,6-tetrahydro-2H-[1,4′]bipyridinyl-3′-yl)-amide] | < 1 µM | < 1 µM | < 1 µM |  | 10000 to 25000 nM | > 25 µM |  |  | 
Nc1ccc(-c2ccc(N)c(C(=O)Nc3cnccc3N3CCC[C@H](N)C3)n2)c(F)n1 [Example 484, 5,6′-Diamino-2′-fluoro-[2,3′]bi-pyridinyl-6-carboxylic acid (3-amino-3,4,5,6-tetrahydro-2H-[1,4′]bipyridinyl-3′-yl)-amide] | < 1 µM | < 1 µM | < 1 µM |  | 10000 to 25000 nM | > 25 µM |  |  | 
COc1nc(N)ncc1-c1ccc(N)c(C(=O)Nc2cnccc2N2CCC[C@H](N)C2)n1 [Example 485, 3-Amino-6-(2-amino-4-methoxy-pyrimidin-5-yl)-pyridine-2-carboxylic acid (3-amino-3,4,5,6-tetrahydro-2H-[1,4′]bipyridinyl-3′-yl)-amide] | < 1 µM | < 1 µM | < 1 µM |  | > 25000 nM | 10 to 25 µM |  |  | 
Nc1ccc(-c2cccnc2F)nc1C(=O)Nc1ccncc1N1CCCC(N)C1 (stereo not drawn) [Example 552, 5-Amino-2′-fluoro-[2,3′]bi-pyridinyl-6-carboxylic acid (3-amino-3,4,5,6-tetrahydro-2H-[1,3′]bipyridinyl-4′-yl)-amide] |  |  |  |  | 1000 to 10000 nM | 1 to 10 µM | < 1 µM | < 1 µM | < 1 µM
CN1CCC(NC2CCCN(c3ccncc3NC(=O)c3nc(Br)cnc3N)C2)CC1 (stereo not drawn) [Example 597, 3-amino-6-bromo-N-(4-(3-(1-methylpiperidin-4-ylamino)piperidin-1-yl)pyridin-3-yl)pyrazine-2-carboxamide] |  |  |  |  | 1000 to 10000 nM | > 25 µM | 1 to 10 µM | < 1 µM | < 1 µM
Nc1ncc(Br)nc1C(=O)Nc1cnccc1N1CCCC(NCc2ccccc2)C1 (stereo not drawn) [Example 598, 3-amino-6-bromo-pyrazine-2-carboxylic acid (3-benzylamino-3,4,5,6-tetrahydro-2H-[1,4′]bi-pyridinyl-3′-yl)-amide] |  |  |  |  | 1000 to 10000 nM | 1 to 10 µM | 1 to 10 µM | < 1 µM | < 1 µM
